Tests used:
[1] = tested on: renal dysfunction caused by administration of cisplatin; settings: 300 mg/kg intraperitoneally; cited from earlier work
[2] = tested on: Human proximal renal tubular cells (HK-2); assay: Suppression effect on cisplatin-induced cytotoxicity in renal tubular cells (cell counting kit-8); type: cell-based; settings: for suppression of cell death over the tested concentrations: 0.01-100 μM test compound, cisplatin 20 μM for 24 h; for suppression of cell death over the tested concentrations / concentration showing a significant cell death-suppressing effect: FIG. 1; for concentration showing a significant cell death-suppressing effect: 0.5 h pre-treatment with test compound, then cisplatin 20 μM for 24 h
Protocol: Human proximal renal tubular cells (HK-2) were seeded into a 96-well plate containing medium at a density of 5×10^3 cells/well. After confirming that the seeded cells had adhered to the plate, each test compound (GSSSG or Na2S4) was added so that the final concentration was 0 μM, 0.01 μM, 0.02 μM, 0.10 μM, 0.39 μM, 1.56 μM, 6.25 μM, 25 μM, or 100 μM, followed by standing at 37° C. for 0.5 hours. Each test compound was dissolved in PBS and then added.
The supernatant in each well was removed, and the cells were washed with PBS. […] Thereafter, cell viability was evaluated using cell counting kit-8 (Dojindo).
The composition of the medium used in Example 1 was as follows: • D-MEM/Ham's F-12 (FUJIFILM Wako Pure Chemical Corporation)+Penicillin-Streptomycin-Amphotericin B (FUJIFILM Wako Pure Chemical Corporation)+GlutaMAX (Thermo Fisher Scientific)+10% FBS.

[3] = tested on: cisplatin-induced acute kidney injury model animal; assay: Cisplatin-induced acute kidney injury model animal; type: in vivo; settings: administration group
[4] = tested on: cisplatin-induced renal injury; settings: 5.6 mg/kg intraperitoneal; cited from earlier work

Structure (SMILES) | cisplatin-induced body weight suppression [1] | cisplatin-induced elevated blood urea nitrogen [1] | suppression of cell death over the tested concentrations ([2]; HK-2 cells) | concentration showing a significant cell death-suppressing effect ([2]; HK-2 cells) | cell death-suppressing effect relative to Na2S4 ([2]; HK-2 cells, cisplatin 20 μM, compares 0.1 μM with 100 μM) | number of viable renal tubular cells ([2]; test compound 0.1 μM, cisplatin added, fluorescence images, FIG. 2) | elevation of blood urea nitrogen (BUN) level [3] | elevation of serum creatinine (CRE) level [3] | effect on cisplatin-induced renal injury [4]
CC(C)OC(=O)CNC(=O)C(CS)NC(=O)CCC(N)C(=O)O.O=S(=O)(O)O (centres unmarked) [glutathione monoisopropyl ester sulfate] | alleviates | alleviates | – | – | – | – | – | – | –
N[C@@H](CCC(=O)N[C@@H](CSSSC[C@H](NC(=O)CC[C@H](N)C(=O)O)C(=O)NCC(=O)O)C(=O)NCC(=O)O)C(=O)O [GSSSG, glutathione trisulfide] | – | – | tendency to suppress cell death in a concentration-dependent manner | 0.1 µM | about 1000 times | notably higher | could be suppressed | could be suppressed | –
[Na+].[Na+].[S-]SS[S-] [Na2S4, reference compound] | – | – | tendency to suppress cell death in a concentration-dependent manner | 100 µM | – | – | – | – | effective

Source: patent publication US20260191823A1, “PROPHYLACTIC OR THERAPEUTIC AGENT FOR ACUTE KIDNEY INJURY INDUCED BY ANTICANCER AGENT” (KYOWA HAKKO BIO CO., LTD., priority 2022, published 2026)
